Measured values as given in patent publication US20080262097A1, “Formulations” (priority 2005, published 2008).
≈ marks a conversion by molar mass, not a printed value. Read-outs that look alike come from different tables or passages of the source.

Assays:
[1] = system: P. granulosum NCTC 11865; test: Disc diffusion assay (DDA); type: cell-based; details: zone diameter, 200 μg per disc
Protocol: (§1) The Propionibacterium spp organisms were cultured and maintained on Wilkins-Chalgren Anaerobe Medium (agar and broth) at pH 6.0; cultures were incubated anaerobically at 37° C. for 72 hours.
(§2) A sterile paper disc was impregnated with a sample of the test compound and a minimum of 30 minutes allowed for the solvents to evaporate as far as possible. The disc was then placed on an agar plate onto which the test micro-organism had been inoculated. The plate was then incubated under the conditions described above, following which it was examined visually for signs of bacterial growth. If the test compound had antimicrobial activity, a circular zone of no growth would be obtained around the disc. The diameter of this zone of “inhibition” was measured using a ProtoCOL™ automated zone sizer (Synbiosis, Cambridge, UK). In general, a greater diameter and/or area of the zone of inhibition indicates a greater antimicrobial activity in the relevant test compound, although other factors such as test compound mobility through the agar gel may also influence the result.
(§3) The area of the zone of inhibition was calculated from the measured zone diameter (D) using the formula π(D/2)^2.

[2] = system: P. granulosum PRP-055; test: Disc diffusion assay (DDA); type: cell-based; details: zone diameter, 200 μg per disc
Protocol: as §1, §2, §3

[3] = system: P. granulosum PRP-005; test: Disc diffusion assay (DDA); type: cell-based; details: zone diameter, 200 μg per disc
Protocol: as §1, §2, §3

[4] = system: P. avidum ATCC 25577; test: Disc diffusion assay (DDA); type: cell-based; details: zone diameter, 200 μg per disc
Protocol: as §1, §2, §3

[5] = system: P. granulosum PRP-044; test: Disc diffusion assay (DDA); type: cell-based; details: zone diameter, 200 μg per disc
Protocol: as §1, §2, §3

[6] = system: P. granulosum PRP-043; test: Disc diffusion assay (DDA); type: cell-based; details: zone diameter, 200 μg per disc
Protocol: as §1, §2, §3

[7] = system: P. granulosum NCTC 11865; test: MBC assay; type: cell-based; details: P. granulosum NCTC 11865 (resistance None)
Protocol: as §1
(§4) This assay, normally carried out after an MIC assay, determines the minimum concentration of a compound that is lethal to the micro-organism being tested.
(§5) These samples were then individually sub-cultured on non-selective agar medium, under the incubation conditions described above. Following incubation they were examined visually for bacterial growth.

[8] = system: P. granulosum PRP-055; test: MBC assay; type: cell-based; details: P. granulosum PRP-055 (resistance None)
Protocol: as §1, §4, §5

[9] = system: P. granulosum PRP-005; test: MBC assay; type: cell-based; details: P. granulosum PRP-005 (resistance MLSK)
Protocol: as §1, §4, §5

[10] = system: P. avidum ATCC 25577; test: MBC assay; type: cell-based; details: Cutibacterium avidum, ATCC25577
Protocol: as §1, §4, §5

[11] = system: P. granulosum PRP-044; test: MBC assay; type: cell-based; details: P. granulosum PRP-044 (resistance MLS)
Protocol: as §1, §4, §5

[12] = system: P. granulosum PRP-043; test: MBC assay; type: cell-based; details: P. granulosum PRP-043 (resistance MLS)
Protocol: as §1, §4, §5

[13] = system: P. acnes PRP-010; test: MIC assay; type: cell-based, Propionibacterium acnes; details: Cutibacterium acnes, PRP010; P. acnes PRP-010 (resistance MLSK)
Protocol: (§6) Other propionibacterial strains were also tested, as described in Example 8 below. These included certain antibiotic resistant propionibacteria, such as the two P. acnes strains PRP-010 and PRP-053 which are resistant respectively to macrolides-lincosamides-streptogramins-ketolides (MLSK) and to macrolides-lincosamides-streptogramins (MLS) and tetracycline—in other words, PRP-010 is resistant to erythromycin and clindamycin, and […] to erythromycin, clindamycin and tetracycline.
as §1
(§7) This is a standard international method for quantitatively assessing the antimicrobial activity of a compound in a liquid medium. The method used a 96-well microtitre plate, capable of holding about 200 μl of liquid per well. […] The culture media were as described above for the relevant test organisms.
(§8) The wells were inoculated with a liquid suspension of freshly grown micro-organism and incubated under the conditions described above. After incubation, the microtitre plate was examined visually (with the aid of a light box) for cell pellets in and/or opaque wells, which would indicate microbial growth. The MIC value was recorded as the lowest concentration of test compound required to inhibit microbial growth, ie, the lowest concentration for which the liquid in the well remained clear.
(§9) The assays were conducted in duplicate and included both negative (culture medium only) and positive (culture medium, diluting solvent and inoculum) controls.

[14] = system: P. acnes PRP-053; test: MIC assay; type: cell-based, Propionibacterium acnes; details: Cutibacterium acnes, PRP053; P. acnes PRP-053 (resistance Tet/MLS)
Protocol: as §6, §1, §7, §8, §9

[15] = system: P. acnes PRP-017; test: Disc diffusion assay (DDA); type: cell-based, Propionibacterium acnes; details: zone diameter, 200 μg per disc
Protocol: as §1, §2, §3

[16] = system: S. aureus CPHL EMRSA 15; test: MIC assay; type: cell-based; details: Staphylococcus aureus
Protocol: (§10) Other staphylococcal strains were also tested, as described in Example 5 below. These included certain antibiotic resistant staphylococci, such as the methicillin resistant S. aureus (MRSA) strains EMRSA-15 and EMRSA-16, both available from the Central Public Health Laboratory (CPHL), Colindale, UK. These strains are resistant not only to all beta-lactams but also to a number of other antibiotics in clinical use, making them a serious threat to human health. They are also responsible for the majority (>95%) of hospital-acquired MRSA infections in the UK.
(§11) The staphylococci and enterococci were cultured and maintained on Mueller-Hinton Medium (agar and broth) at pH 7.2; they were incubated aerobically at 37° C. for 24 hours.
as §7, §8, §9

[17] = system: S. aureus CPHL EMRSA 16; test: MIC assay; type: cell-based; details: Staphylococcus aureus
Protocol: as §10, §11, §7, §8, §9

[18] = system: E faecalis ATCC 29212; test: MBC assay; type: cell-based; details: Enterococcus faecalis, ATCC29212
Excerpt: 3. Enterococcus faecalis ATCC 29212—this is a Gram-positive bacterium belonging to the genus Enterococcus. Enterococci have similar properties to streptococci, but differ in their ability to grow on bile-salt containing media such as MacConkey's Agar. Their principal habitat is the mammalian gastrointestinal tract. They cause a number of important infections including endocarditis, urinary tract infections and abscesses. In the context of skin, they are frequently isolated from wound infections. Unlike the streptococci, the enterococci have developed widespread resistance to penicillin. More recently, E. faecalis and E. faecium strains have also developed resistance to the glycopeptide antibiotics such as vancomycin. Vancomycin-Resistant Enterococci (VRE), principally vanA strains of E. faecium, now represent a serious healthcare-acquired infection hazard in the USA, Japan and Western Europe.
as §11, §4
These samples were then individually sub-cultured on non-selective agar medium, under the incubation conditions described above. […]

Row | Structure (SMILES) | DDA [1] | DDA [2] | DDA [3] | DDA [4] | DDA [5] | DDA [6] | MBC [7] [µg/mL] | MBC [8] [µg/mL] | MBC [9] [µg/mL] | MBC [10] [µg/mL] | MBC [11] [µg/mL] | MBC [12] [µg/mL] | MIC [13] [µg/mL] | MIC [14] [µg/mL] | DDA [15] | MIC [16] [µg/mL] | MIC [17] [µg/mL] | MBC ([18]; E faecalis ATCC 29212, read-out: MBC) [µg/mL] | MBC ([10]; P. avidum ATCC 25577 (resistance None), read-out: MBC) [µg/mL] | MBC [18] [µg/mL]
1 | O=C(OOC(=O)c1ccccc1)c1ccccc1 [benzoyl peroxide] | 24.19 (±0.94) mm | 21.51 (±0.47) mm | 22.95 (±0.64) mm | 25.83 (±0.95) mm | 29.31 (±0.54) mm | 22.48 (±1.19) mm | 15.6 (≈ 64.4 µM) | 15.6 (≈ 64.4 µM) | 15.6 (≈ 64.4 µM) | 62.5 (≈ 258 µM) | 31.2 (≈ 129 µM) | 62.5 (≈ 258 µM) | 31.2 (≈ 129 µM) | 31.2 (≈ 129 µM) | 23.28 (±0.48) mm | 125 (≈ 516 µM) | 125 (≈ 516 µM) | > 250 | – | –
2 | CC(C)(C)c1cc(O)ccc1O [TBHQ, t-butyl hydroquinone] | 11.00 (±0.00) mm | 13.07 (±0.78) mm | 0.00 (±0.00) mm | 9.16 (±0.48) mm | 10.70 (±0.65) mm | 10.56 (±0.48) mm | 7.8 (≈ 46.9 µM) | 7.8 (≈ 46.9 µM) | 62.5 (≈ 376 µM) | – | 31.2 (≈ 188 µM) | 15.6 (≈ 93.9 µM) | 3.9 (≈ 23.5 µM) | 3.9 (≈ 23.5 µM) | 18.40 (±1.08) mm | 3.9 (≈ 23.5 µM) | 3.9 (≈ 23.5 µM) | – | 3.9 (≈ 23.5 µM) | 31.2
